Activity calls are given as the source filed them.
Columns and labels:
Cytochrome P450 3A4 = Cytochrome P450 3A4 (Homo sapiens, UniProt P08684); details: Potency;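 note: confirmatory qHTS run detecting inhibitors and substrates of CYP3A4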
Cytochrome P450 2D6 = Cytochrome P450 2D6 (Homo sapiens, UniProt P10635); test: qHTS Assay for Inhibitors and Substrates of Cytochrome P450 2D6. [Related pubchem assays: 410 ]; type: ADME; details: read-out: Potency
[1] = M. tuberculosis H37Rv growth inhibitors, H37Rv strain (AID 1626); type: functional
Bcl-2-like protein 1 = Bcl-2-like protein 1 (Homo sapiens, UniProt Q07817); test: blockers of BCLXL peptide binding – biochemical, fluorescence polarization, 1536-well, selectivity assay for MCL1 inhibitor project, dose response (AID 2218)
Sequence of Bcl-2-like protein 1 (Q07817 whole entry): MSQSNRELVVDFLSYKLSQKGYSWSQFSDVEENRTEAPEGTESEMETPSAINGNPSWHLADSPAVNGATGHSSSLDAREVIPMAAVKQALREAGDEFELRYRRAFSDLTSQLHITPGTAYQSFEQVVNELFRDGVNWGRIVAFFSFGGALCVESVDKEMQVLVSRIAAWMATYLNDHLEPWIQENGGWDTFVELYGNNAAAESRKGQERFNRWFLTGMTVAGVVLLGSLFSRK

[2] = biological target: Eukaryotic translation initiation factor 4E (Mus musculus, UniProt P63073); test: blockers of eIF4G binding by eIF4E – biochemical, TR-FRET, dose response (AID 855); type: functional;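 note: potency for disrupting eIF4E binding to eIF4GI seen as loss of FRET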
Sequence of Eukaryotic translation initiation factor 4E (P63073 whole entry, the tested form may be a part): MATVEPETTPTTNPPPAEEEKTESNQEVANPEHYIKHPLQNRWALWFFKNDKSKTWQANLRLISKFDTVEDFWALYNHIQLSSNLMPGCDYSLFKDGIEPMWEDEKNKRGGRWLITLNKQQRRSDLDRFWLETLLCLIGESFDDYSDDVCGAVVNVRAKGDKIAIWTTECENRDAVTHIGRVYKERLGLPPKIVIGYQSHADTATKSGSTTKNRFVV

[3] = biological target: T1, Carboxy-terminal domain RNA polymerase II polypeptide A small phosphatase 1 (Homo sapiens, UniProt Q9GZU7); test: CTDSP1 inhibitors, concentration-response, biochemical, absorbance readout, ultra-high-throughput screen actives (AID 540297); type: functional
T1 sequence (Q9GZU7 whole entry): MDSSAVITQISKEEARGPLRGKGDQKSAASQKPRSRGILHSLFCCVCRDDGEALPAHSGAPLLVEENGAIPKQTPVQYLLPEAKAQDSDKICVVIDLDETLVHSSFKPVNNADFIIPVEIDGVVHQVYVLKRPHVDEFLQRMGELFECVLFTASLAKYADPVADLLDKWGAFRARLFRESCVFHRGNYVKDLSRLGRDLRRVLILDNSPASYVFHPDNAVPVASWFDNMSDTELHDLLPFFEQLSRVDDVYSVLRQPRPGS

[4] = biological target: Induced myeloid leukemia cell differentiation protein Mcl-1 (Homo sapiens, UniProt Q07820); test: blockers of MCL1 binding to BIM peptide – biochemical, fluorescence polarization, BIM-BH3 peptide, 1536-well, dose response (AID 2217)
Sequence of Induced myeloid leukemia cell differentiation protein Mcl-1 (Q07820 whole entry): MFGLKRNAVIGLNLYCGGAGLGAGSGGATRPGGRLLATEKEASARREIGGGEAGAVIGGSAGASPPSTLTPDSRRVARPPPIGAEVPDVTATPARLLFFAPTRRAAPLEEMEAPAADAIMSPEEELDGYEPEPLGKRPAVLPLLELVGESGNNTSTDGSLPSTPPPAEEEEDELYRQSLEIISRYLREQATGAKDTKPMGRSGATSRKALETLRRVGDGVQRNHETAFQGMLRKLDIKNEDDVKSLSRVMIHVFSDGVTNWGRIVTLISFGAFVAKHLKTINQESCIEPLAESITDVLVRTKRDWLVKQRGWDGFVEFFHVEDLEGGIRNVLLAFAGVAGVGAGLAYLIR

[5] = biological target: T2, Neuropeptide Y receptor type 1 (Homo sapiens, UniProt P25929); test: IC50 of human NPY-Y1 blockers – cell-based, dose response (AID 1277); type: functional
T2 sequence (P25929 whole entry): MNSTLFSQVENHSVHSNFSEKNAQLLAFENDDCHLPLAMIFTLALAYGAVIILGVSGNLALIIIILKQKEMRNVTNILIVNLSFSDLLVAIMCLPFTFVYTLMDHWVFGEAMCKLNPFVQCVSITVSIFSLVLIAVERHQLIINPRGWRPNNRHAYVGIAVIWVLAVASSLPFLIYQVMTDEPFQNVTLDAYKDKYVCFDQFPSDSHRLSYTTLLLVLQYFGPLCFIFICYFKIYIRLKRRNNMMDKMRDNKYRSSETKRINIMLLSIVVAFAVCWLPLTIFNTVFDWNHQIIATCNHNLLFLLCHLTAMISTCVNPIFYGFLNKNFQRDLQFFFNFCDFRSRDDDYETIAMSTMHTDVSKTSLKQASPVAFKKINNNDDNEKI

[6] = biological target: T3, Neuropeptide Y receptor type 2 (Homo sapiens, UniProt P49146); test: IC50 for human NPY-Y2 blockade – cell-based, counter-screen for NPY-Y1 antagonist project, dose response (AID 1278); type: functional
T3 sequence (P49146 whole entry): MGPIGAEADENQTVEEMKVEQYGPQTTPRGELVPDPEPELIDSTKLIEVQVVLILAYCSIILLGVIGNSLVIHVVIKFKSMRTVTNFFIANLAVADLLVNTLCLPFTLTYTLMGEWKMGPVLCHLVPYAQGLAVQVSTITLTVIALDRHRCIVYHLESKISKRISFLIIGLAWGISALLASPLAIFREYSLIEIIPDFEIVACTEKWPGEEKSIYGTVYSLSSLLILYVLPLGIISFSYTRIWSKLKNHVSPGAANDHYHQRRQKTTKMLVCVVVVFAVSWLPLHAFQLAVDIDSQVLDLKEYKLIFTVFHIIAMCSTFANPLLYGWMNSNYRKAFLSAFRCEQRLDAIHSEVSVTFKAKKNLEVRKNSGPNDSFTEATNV

[7] = A Cell Based Secondary Assay To Explore Cytotoxicity of Compounds that Sensitize Mycobacterium Tuberculosis to Beta-Lactam Antibiotics.; type: functional
[8] = biological target: Intestinal-type alkaline phosphatase (Mus musculus, UniProt P24822); test: PubChem AID 488785; type: functional
Sequence of Intestinal-type alkaline phosphatase (Mus musculus, UniProt P24822) (P24822 whole entry): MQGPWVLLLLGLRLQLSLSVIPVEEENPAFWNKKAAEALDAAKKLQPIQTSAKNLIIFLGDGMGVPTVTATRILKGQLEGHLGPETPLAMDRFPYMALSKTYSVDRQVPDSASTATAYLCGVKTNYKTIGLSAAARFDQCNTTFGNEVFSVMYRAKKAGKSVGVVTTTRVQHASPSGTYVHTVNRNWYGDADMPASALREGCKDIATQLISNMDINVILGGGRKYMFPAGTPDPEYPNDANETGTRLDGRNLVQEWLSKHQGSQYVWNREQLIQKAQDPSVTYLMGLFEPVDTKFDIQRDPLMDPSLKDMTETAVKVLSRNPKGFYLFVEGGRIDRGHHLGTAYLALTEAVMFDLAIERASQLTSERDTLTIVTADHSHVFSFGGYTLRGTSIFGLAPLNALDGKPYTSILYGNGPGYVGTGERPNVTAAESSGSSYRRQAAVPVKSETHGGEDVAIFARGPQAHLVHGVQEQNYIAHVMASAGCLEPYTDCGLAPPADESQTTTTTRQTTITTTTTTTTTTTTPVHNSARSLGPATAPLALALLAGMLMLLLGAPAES

[9] = biological target: T4, Alkaline phosphatase, tissue-nonspecific isozyme (Homo sapiens, UniProt P05186); test: TNAP enzyme inhibition by screening hits, dose response, selectivity assay for mouse IAP inhibitor project, biochemical, human TNAP, uHTS hits (AID 488906); type: functional
T4 sequence (P05186 whole entry): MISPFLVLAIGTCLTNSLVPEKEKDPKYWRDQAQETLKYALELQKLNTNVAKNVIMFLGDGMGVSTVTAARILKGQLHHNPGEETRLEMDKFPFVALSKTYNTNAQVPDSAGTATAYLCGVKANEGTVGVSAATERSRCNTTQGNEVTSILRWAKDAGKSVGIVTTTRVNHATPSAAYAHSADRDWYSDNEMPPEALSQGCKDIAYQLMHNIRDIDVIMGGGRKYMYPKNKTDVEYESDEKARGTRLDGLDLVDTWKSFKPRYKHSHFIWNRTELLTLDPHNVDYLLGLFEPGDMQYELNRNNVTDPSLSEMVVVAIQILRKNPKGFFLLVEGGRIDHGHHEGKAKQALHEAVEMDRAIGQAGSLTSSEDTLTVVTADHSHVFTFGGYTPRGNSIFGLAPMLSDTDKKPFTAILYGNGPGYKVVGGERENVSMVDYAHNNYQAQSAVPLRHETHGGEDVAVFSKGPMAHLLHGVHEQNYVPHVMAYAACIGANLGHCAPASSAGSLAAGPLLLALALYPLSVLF

[10] = biological target: Intestinal-type alkaline phosphatase (Homo sapiens, UniProt P09923); test: inhibition of human intestinal alkaline phosphatase – biochemical, dose response (AID 488876); type: functional
Sequence of Intestinal-type alkaline phosphatase (Homo sapiens, UniProt P09923) (P09923 whole entry): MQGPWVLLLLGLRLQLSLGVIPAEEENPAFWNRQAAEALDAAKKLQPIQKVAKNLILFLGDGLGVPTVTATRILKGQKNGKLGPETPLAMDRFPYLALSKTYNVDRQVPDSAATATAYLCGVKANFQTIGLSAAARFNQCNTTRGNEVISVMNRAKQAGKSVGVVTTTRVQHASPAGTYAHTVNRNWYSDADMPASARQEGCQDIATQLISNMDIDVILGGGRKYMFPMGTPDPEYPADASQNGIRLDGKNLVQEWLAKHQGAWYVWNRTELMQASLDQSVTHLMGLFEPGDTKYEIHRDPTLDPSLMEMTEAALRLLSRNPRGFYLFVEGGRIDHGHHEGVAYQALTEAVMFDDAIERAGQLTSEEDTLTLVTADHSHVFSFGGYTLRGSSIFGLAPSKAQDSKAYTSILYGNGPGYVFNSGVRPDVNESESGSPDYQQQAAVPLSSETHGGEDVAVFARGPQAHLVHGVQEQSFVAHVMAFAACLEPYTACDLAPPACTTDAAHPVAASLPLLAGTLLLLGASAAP

Sequence of Cytochrome P450 3A4 (P08684 whole entry): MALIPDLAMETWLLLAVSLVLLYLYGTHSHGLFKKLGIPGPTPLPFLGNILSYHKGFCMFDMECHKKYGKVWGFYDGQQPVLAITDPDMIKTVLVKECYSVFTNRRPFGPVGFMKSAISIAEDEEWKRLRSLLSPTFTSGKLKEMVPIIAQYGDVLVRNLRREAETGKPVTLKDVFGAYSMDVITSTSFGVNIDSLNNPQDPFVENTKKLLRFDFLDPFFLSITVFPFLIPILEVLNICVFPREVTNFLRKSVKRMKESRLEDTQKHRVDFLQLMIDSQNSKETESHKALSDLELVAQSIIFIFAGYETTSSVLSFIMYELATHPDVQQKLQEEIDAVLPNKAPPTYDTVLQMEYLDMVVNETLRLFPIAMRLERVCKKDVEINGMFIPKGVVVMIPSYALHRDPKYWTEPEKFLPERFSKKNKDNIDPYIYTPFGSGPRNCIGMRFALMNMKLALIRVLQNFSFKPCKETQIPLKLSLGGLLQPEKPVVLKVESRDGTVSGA
Sequence of Cytochrome P450 2D6 (P10635 whole entry): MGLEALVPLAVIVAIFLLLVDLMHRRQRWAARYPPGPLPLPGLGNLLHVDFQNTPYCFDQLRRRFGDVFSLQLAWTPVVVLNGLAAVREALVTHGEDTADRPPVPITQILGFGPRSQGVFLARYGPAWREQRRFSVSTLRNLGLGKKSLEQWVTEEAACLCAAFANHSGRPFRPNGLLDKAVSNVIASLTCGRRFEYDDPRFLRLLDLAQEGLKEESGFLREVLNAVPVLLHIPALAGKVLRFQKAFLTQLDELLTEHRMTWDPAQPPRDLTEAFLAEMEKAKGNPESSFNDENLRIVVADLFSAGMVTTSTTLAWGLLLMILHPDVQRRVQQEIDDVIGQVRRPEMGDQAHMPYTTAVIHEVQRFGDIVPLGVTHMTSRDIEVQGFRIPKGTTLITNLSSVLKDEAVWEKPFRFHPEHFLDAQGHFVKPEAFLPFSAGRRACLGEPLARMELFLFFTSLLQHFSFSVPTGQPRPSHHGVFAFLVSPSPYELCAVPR

## CC(C)CN1CCc2nc(-c3ccccc3)c3c(c2C1)COC(C)C3 (stereo unspecified)
Cytochrome P450 3A4
  AC50: 3.16 µM (inconclusive)
Cytochrome P450 2D6
  AC50: 3.16 µM (inconclusive)

## N#Cc1ccc(/C=C/C(=O)c2ccc3c(c2)OCO3)cc1
[1]
  IC50: > 100 µM (active)

## O=C(/C=C/c1ccco1)N(c1ccccn1)c1ccccn1
Bcl-2-like protein 1
  IC50: > 109 µM (not active)
[2]
  IC50: 50 µM (inactive)
[3]
  IC50: 3.29 µM (active)
[4]
  IC50: 19.8 µM (not active)

## CC(C)(C)NCc1cc(Br)ccc1OC1CCCC1
[5]
  IC50: 7.43 µM (active)
[6]
  IC50: 11.2 µM (not active)

## Sc1ncnc2scc(-c3ccc(Br)cc3)c12
[7]
  CC50: 25.9 µM (active)
[1]
  IC50: > 100 µM (active)

## CCN(C(=O)C(C)N1C(=O)/C(=C/c2ccco2)SC1=S)C1CCS(=O)(=O)C1 (stereo unspecified)
[8]
  IC50: 0.419 µM (active)
Bcl-2-like protein 1
  IC50: > 109 µM (not active)
[9]
  IC50: 11.1 µM (active)
[10]
  IC50: 3.79 µM (active)
[4]
  IC50: > 12.1 µM (not active)

From ChEMBL document CHEMBL1201862, “PubChem BioAssay data set” (2004)
